Reference: patent US11613780B2, “Materials and methods for identifying gyrase inhibitors” (THE FLORIDA INTERNATIONAL UNIVERSITY BOARD OF TRUSTEES, priority 2016, dated 2023)
Entries after “also recorded” stand apart in the source; their conditions may differ.

How the values were obtained:
[1] = test system: expression of firefly luciferase under the control of the PgyrA (screen for DNA gyrase inhibitors); test: Firefly luciferase expression from PgyrA divergently coupled to IPTG-induced PT7Al/O4 (luciferase assay); type: cell-based, E. coli; settings: for expression of firefly luciferase of FL #1181: FL #1181, in the presence of IPTG, FIG. 12E; for expression of firefly luciferase (other antibiotics): FIG. 12F, antibiotics that are not gyrase inhibitors
Description: (§1) FIGS. 5A-5D. (FIG. 5A) and (FIG. 5B) Inhibition of the supercoiling-sensitive PgyrA by E. coli […] on the chromosome. E. coli strains FL1181 (MG1655(DE3)ΔlacZ attTn7::PT7Al/O4lacZ-PgyrAluc; squares) and FL1182 (VS111(DE3)ΔlacZ attTn7::PT7Al/O4lacZ-PgyrAluc; circles) were used. The activities of β-galactosidase (Miller's units) and firefly luciferase (RLU) were plotted against the IPTG concentration added to the cell cultures. […] Overnight cell cultures were diluted 100-fold and grown until OD600 reached 0.2. Then 0.5 mM of IPTG and various concentrations of ciprofloxacin or other antibiotics were added to the cell cultures. After additional 30 min incubation, the activities of β-galactosidase and firefly luciferase were measured as described under Materials and Methods. (FIG. 5C) Ciprofloxacin inhibited the expression of β-galactosidase.
Briefly, a 5.1 kb DNA fragment carrying the divergently coupled PgyrA and PT7Al/O4 promoters with the luc and lacZ genes was inserted to the attTn7 site of the E. coli chromosome (84 min of the chromosome) to generate FL1181 and FL1182. In both strains, the IPTG-inducible PT7Al/O4 controls the expression of β-galactosidase. Using similar approach, the following E. coli strains were generated: FL1181, FL1182, FL1198, FL1199, FL1200, FL1202, FL1203, and FL1204.
Luciferase Assay was used to verify the expression of luciferase in various E. coli strains carrying different plasmid DNA templates. Briefly, E. coli cells carrying different plasmids were grown overnight in LB. Antibiotics were added to LB as needed. The overnight culture was then diluted (1:100) in fresh LB in the presence of different concentrations of IPTG, and grown until the OD600 nm reached approximately 0.5. Next, 50 μl of cells were mixed with 10 μl of 1 M K2HPO4 (pH 7.8) and 20 mM EDTA, quickly frozen in liquid nitrogen for 3 min, and equilibrated to room temperature for 30 min to yield about 60 μl of cell lysate. Then, the cell lysate was added with 300 μl freshly prepared lysis mix containing 1×cell culture lysis reagent (CCLR), 1.25 mg/ml lysozyme, and 2.5 mg/ml BSA, and incubated for 10 min at room temperature. Finally, 100 μl of Luciferase Assay Reagent (Promega Corporation, Madison, Wis.) was added to 20 μl of the cell lysate and used for light measurement by using a Promega GloMax 20/20 Single-Tube Luminometer.

[2] = test system: expression of β-galactosidase (lacZ) under the control of PT7Al/O4; test: β-galactosidase expression from PT7Al/O4 (Miller's assay); type: cell-based, E. coli; settings: FL1181 and FL1182, 0.5 mM IPTG, 30 min incubation; FIG. 5C
Description: as §1, with “β-galactosidase. […]” for “β-galactosidase.”
The expression level of β-galactosidase was measured by Miller's assay as described by Miller et al. Briefly, 100 mL of LB was inoculated with 1 mL of overnight bacterial cell culture until OD600 reaches about 0.2. […] After cell debris was removed by centrifugation at 13,000 rpm for 1 min, OD420 and OD550 were measured in a Cary 50 spectrophotometer. β-Galactosidase activities (E) were calculated using the following equation: […]

| Structure (SMILES) | expression of firefly luciferase of FL #1181 [1] | expression of firefly luciferase (other antibiotics) [1] | expression of β-galactosidase [2] | expression of firefly luciferase ([1]; E. coli strains FL1181 and FL1182 (divergently coupled PgyrA and PT7Al/O4), in the presence of IPTG (0.5 mM), 30 min incubation, FIG. 5D) |
| --- | --- | --- | --- | --- |
| CCn1cc(C(=O)O)c(=O)c2cc(F)c(N3CCNCC3)cc21 [norfloxacin] | stimulation |  |  |  |
| CC1(C)S[C@@H]2[C@H](NC(=O)[C@H](N)c3ccccc3)C(=O)N2[C@H]1C(=O)O [ampicillin] |  | inhibited; also recorded: inhibition |  |  |
| O=C(O)c1cn(C2CC2)c2cc(N3CCNCC3)c(F)cc2c1=O [ciprofloxacin] | stimulation |  | inhibited | substantially increased; also recorded: greatly enhanced; also recorded: specifically enhanced |
| CN[C@@H]1[C@H](O)[C@H](NC)[C@H]2O[C@@]3(O)C(=O)C[C@@H](C)O[C@H]3O[C@@H]2[C@H]1O [spectinomycin] |  | inhibition |  |  |
| CCN1CCN(c2cc3c(cc2F)c(=O)c(C(=O)O)cn3C2CC2)CC1 [enrofloxacin] | stimulation |  |  |  |
